According to the supplement of paper PMC11451515:

Test system: NOMO1
Assay: cell viability relative to DMSO control; higher = less cytotoxic
Settings: 48 h
In short: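 Cells were incubated for 48 h at 37°C before CellTiter-Glo One luminescence was read. The cells were NOMO1 or SEM (500 cells/well) or P12-Ichikawa (1000 cells/well) leukemia cells, adapted for at least four passages in each medium and seeded in 1536-well plates (5 μl). Dosing used library compounds in DMSO applied by pin over 11 threefold points, 47 μM to 0.79 nM. Viability is the per-plate percentage of DMSO wells, with cell-free wells as background.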

[1] = HPLM + 10% dialyzed FBS, 0.000781 µM
[2] = HPLM + 10% dialyzed FBS, 0.00234 µM
[3] = HPLM + 10% dialyzed FBS, 0.00702 µM
[4] = HPLM + 10% dialyzed FBS, 0.0211 µM
[5] = HPLM + 10% dialyzed FBS, 0.0632 µM
[6] = HPLM + 10% dialyzed FBS, 0.19 µM
[7] = HPLM + 10% dialyzed FBS, 0.569 µM
[8] = HPLM + 10% dialyzed FBS, 1.71 µM
[9] = HPLM + 10% dialyzed FBS, 5.12 µM
[10] = HPLM + 10% dialyzed FBS, 15.4 µM
[11] = HPLM + 10% dialyzed FBS, 46.1 µM
[12] = RPMI 5 mM glucose + 10% FBS, 0.000781 µM
[13] = RPMI 5 mM glucose + 10% FBS, 0.00234 µM
[14] = RPMI 5 mM glucose + 10% FBS, 0.00702 µM
[15] = RPMI 5 mM glucose + 10% FBS, 0.0211 µM
[16] = RPMI 5 mM glucose + 10% FBS, 0.0632 µM
[17] = RPMI 5 mM glucose + 10% FBS, 0.19 µM
[18] = RPMI 5 mM glucose + 10% FBS, 0.569 µM
[19] = RPMI 5 mM glucose + 10% FBS, 1.71 µM
[20] = RPMI 5 mM glucose + 10% FBS, 5.12 µM
[21] = RPMI 5 mM glucose + 10% FBS, 15.4 µM
[22] = RPMI 5 mM glucose + 10% FBS, 46.1 µM
[23] = RPMI 5 mM glucose + 10% dialyzed FBS, 0.000781 µM
[24] = RPMI 5 mM glucose + 10% dialyzed FBS, 0.00234 µM
[25] = RPMI 5 mM glucose + 10% dialyzed FBS, 0.00702 µM
[26] = RPMI 5 mM glucose + 10% dialyzed FBS, 0.0211 µM
[27] = RPMI 5 mM glucose + 10% dialyzed FBS, 0.0632 µM
[28] = RPMI 5 mM glucose + 10% dialyzed FBS, 0.19 µM
[29] = RPMI 5 mM glucose + 10% dialyzed FBS, 0.569 µM
[30] = RPMI 5 mM glucose + 10% dialyzed FBS, 1.71 µM
[31] = RPMI 5 mM glucose + 10% dialyzed FBS, 5.12 µM
[32] = RPMI 5 mM glucose + 10% dialyzed FBS, 15.4 µM
[33] = RPMI 5 mM glucose + 10% dialyzed FBS, 46.1 µM

SMILES	cell viability [1] [%]	cell viability [2] [%]	cell viability [3] [%]	cell viability [4] [%]	cell viability [5] [%]	cell viability [6] [%]	cell viability [7] [%]	cell viability [8] [%]	cell viability [9] [%]	cell viability [10] [%]	cell viability [11] [%]	cell viability [12] [%]	cell viability [13] [%]	cell viability [14] [%]	cell viability [15] [%]	cell viability [16] [%]	cell viability [17] [%]	cell viability [18] [%]	cell viability [19] [%]	cell viability [20] [%]	cell viability [21] [%]	cell viability [22] [%]	cell viability [23] [%]	cell viability [24] [%]	cell viability [25] [%]	cell viability [26] [%]	cell viability [27] [%]	cell viability [28] [%]	cell viability [29] [%]	cell viability [30] [%]	cell viability [31] [%]	cell viability [32] [%]	cell viability [33] [%]
O=C(Oc1ccc([N+](=O)[O-])cc1)N1CCN(Cc2cccc(Oc3ccccc3)c2)CC1	115	110	112	113	113	126	104	126	120	102	122	95.6	101	112	113	113	123	110	105	110	109	112	93.9	98.5	103	99.8	99.9	98.3	103	114	104	112	105
CCCCCCCCCCCCCCCC(=O)OC[C@@H](NC(=O)C(Cl)Cl)[C@H](O)c1ccc([N+](=O)[O-])cc1	105	123	126	143	118	141	140	144	141	144	142	–	–	–	–	–	–	–	–	–	–	–	–	–	–	–	–	–	–	–	–	–	–
NC/1=N/C(=O)N(/C=C1)[C@H]2CC[C@@H](CO)O2	76	106	107	103	97.5	101	107	92.1	82.8	82.2	14.2	75.6	91.3	85.7	96.4	87.1	92.3	85.7	89.2	91	93.1	8.01	70.8	94.6	92.2	98.5	101	105	108	95.9	74	88.7	6.05
CNC(=O)c1cc(Oc2ccc(NC(=O)Nc3cc(C(C)(C)C)nn3-c3ccc4ncccc4c3)c(F)c2)ccn1	123	121	121	128	127	170	135	155	157	156	122	–	–	–	–	–	–	–	–	–	–	–	119	124	125	140	151	154	160	158	155	164	123
CO[C@@H]1[C@H](N(C)C(=O)c2ccccc2)C[C@H]2O[C@]1(C)n1c3ccccc3c3c4c(c5c6ccccc6n2c5c31)C(=O)NC4	103	104	128	116	153	134	135	114	80	54.5	49.5	96.7	116	107	114	121	115	118	105	87.1	50.9	44.3	117	113	123	111	110	105	114	93.2	80.3	50.8	49.5
COc1ccc(-c2c(-c3ccc(O)cc3O)n[nH]c2C)cc1	108	115	105	115	126	117	104	123	83	102	59	89	98.4	105	101	100	113	105	111	106	102	90.3	91	98	102	124	113	110	121	99.1	109	99.1	77.1
CCC(CC)[C@H](NC(C)=O)[C@@H]1[C@H](O)[C@@H](C(=O)O)C[C@H]1NC(=N)N	67.7	72	78	85	80.9	96.4	90.3	90.8	87.7	82.8	94.9	81.8	85	88.7	85.8	89	84.3	90	87.1	84.1	79.5	81.1	80.4	79.7	82.6	80.4	93	83	90.2	81.7	78.2	78.3	83.1
CC1=C(C)C2=C(S1)[N]3C(=NN=C3[C@H](CC(=O)OC(C)(C)C)/N=C2/C4=CC=C(Cl)C=C4)C	104	97.6	92	102	96.1	70.7	28.9	52.4	15.7	10.5	10.1	88.2	99.2	96.4	88.4	86.2	81.8	27.3	50.5	12.1	10.6	11.1	101	97.5	92.5	87.7	96.8	81.9	29.5	55.3	11.7	10.6	10.5
